The source of these data is patent US7868163B2, “Adenyl dinucleotides with antitumour activity and a method of preparing thereof” (Universita' Degli Studi Di Genova, priority 2005, dated 2011).

For data set [1], the target named is T1, A. californica ADP-ribosyl cyclase (Aplysia californica, UniProt P29241).
T1 construct: The cyclase purified from the mollusc Aplysia californica was purchased from Sigma; purchased Sigma; host or cells: purified from the mollusc
T1 sequence (P29241 25-282): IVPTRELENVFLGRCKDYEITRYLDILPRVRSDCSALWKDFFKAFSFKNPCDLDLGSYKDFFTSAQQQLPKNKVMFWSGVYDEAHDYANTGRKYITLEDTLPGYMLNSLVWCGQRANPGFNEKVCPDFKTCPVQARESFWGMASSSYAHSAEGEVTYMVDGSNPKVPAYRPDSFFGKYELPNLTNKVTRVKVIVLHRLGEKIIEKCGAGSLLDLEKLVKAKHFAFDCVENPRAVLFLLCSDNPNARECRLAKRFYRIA
Put plainly: Hydrolysis by Aplysia californica ADP-ribosyl cyclase. To be noted: P18 to adenine and ADPR. It is filed as in vitro ADME. As for the experimental part:
(A and B) or at 37° C. (C and D) for 4 hours. […] Chromatograms representative of each incubation are shown. A. A. polypoides; B. A. californica; C.
The activities are expressed as nmol/min/mg.

For data set [2], the target named is NAD-glycohydrolase (NAD-ase, from Neurospora) (Neurospora crassa, UniProt Q7S936). Nature of the data set: Resistance to NAD-glycohydrolase catalysed hydrolysis.
Chain of NAD-glycohydrolase (NAD-ase, from Neurospora) (Q7S936 20-243): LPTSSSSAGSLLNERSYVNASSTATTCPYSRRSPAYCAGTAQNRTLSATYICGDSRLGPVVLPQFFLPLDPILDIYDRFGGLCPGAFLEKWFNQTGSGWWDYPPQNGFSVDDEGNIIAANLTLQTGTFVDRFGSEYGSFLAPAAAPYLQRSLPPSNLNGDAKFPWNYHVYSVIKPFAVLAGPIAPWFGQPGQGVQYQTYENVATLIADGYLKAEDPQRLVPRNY
Procedure: The HPLC fractions were lyophilised, resuspended in 200 μl water and the pH eas adjusted to 7.5 with 5N NaOH. Then, in order to remove all traces of NAD^+ and cADPR (which might interfere with the enzymatic assay), NAD-glycohydrolase (NAD-ase, from Neurospora, Sigma) (0.013 IU), recombinant CD38 (0.1 μg, provided by Prof. H. C. Lee, Minneapolis, Minn.) and 2 mM MgCl2 were added to each fraction. […] All fractions were incubated at 37° C. for 18 hours, and the enzymes were removed by filtration with Immobilon-P membranes (Millipore, Bedford, Mass.). The samples were then subdivided into two aliquots and the P18 determination reactions were performed in 96 well plates, at room temperature. 50 μl of a mixture containing 30 mM nicotinamide, 100 mM sodium phosphate, with or without 0.1 μg/μl of ADP-ribosyl cyclase purified from A. polypoides, were added to 100 μl of each sample.
Data set [3] has as its system A. polypoides ADP-ribosyl cyclase. Nature of the data set: Hydrolysis by purified Axinella polypoides ADP-ribosyl cyclase. To be noted: purified A. polypoides cyclase; P18 to cADPR and adenine. The protocol: ADP-ribosyl cyclases from lower and higher Metazoa were incubated in the presence of 0.1 mM cADPR and 1 mM adenine at pH 7.4 in 10 mM Tris-HCl (A, B and C) or in PBS-glucose (D) at 22° C. (A and B) or at 37° C. (C and D) for 4 hours. Aliquots of the various incubations were deproteinised with TCA (trichloroacetic acid) and subjected to HPLC (analytical phosphate). Chromatograms representative of each incubation are shown. A. A. polypoides; B. A. californica; C. Human CD38 (recombinant); D. Human HeLa cells transfected with sense and antisense human CD38 (dashed chromatogram).
In table 1, the absolute values of the peak-forming and -hydrolysing activities are compared with the cADPR-forming and -hydrolysing activities for each enzyme. The activities are expressed as nmol/min/mg.

The subject of the next data set is HL60. Put plainly: MTT reduction proliferation assay, HL60. It is filed as cell-based, human. To be noted: HL60 promyelocytic leukemia, 24 hours. The protocol: The effect of P18 and P24 on the proliferation of several cell lines was determined by the MTT reduction assay (Mosmann, T. (1983) J. Immunol. Methods 65, 55-63). Briefly, cells were seeded at a concentration of 3×10^4/well in flat-bottomed 96-well plates and grown in complete medium in the presence of various concentrations (ranging between 20 and 0.4 μM) of purified dinucleotides. After 24 hours, 10 μl of a 5 mg/ml solution of MTT were added to each well and the plates incubated for a further 2 hours. The supernatant was then removed from each well and the blue crystals produced by the reduction of the dye were dissolved in DMSO (200 μl/well). The optical absorbance at 570 nm was determined with a BioRad microplate reader.
In these experiments, cells were seeded onto 96 well plates (3×10^4 cells per well) and incubated in the presence of increasing concentrations of P18 or P24. After 24 hours, the percentage of viable cells was evaluated by spectrophotometric measurement of the concentration of reduced MTT (see Materials and Methods). The means of at least three separate experiments are shown (s.d.≦20% of the mean value). […]
In general terms: Tetrazolium dyes change colour on reduction, which living cells bring about.

By IC50 is commonly meant the point on the concentration scale where inhibition reaches its midpoint. Read a low IC50 as greater potency in that assay. For `Nc1ncnc2c1ncn2[C@@H]1O[C@H](COP(=O)(O)OP(=O)(O)OC[C@H]2O[C@@H](n3cnc4ncnc-4c3N)[C@H](O)[C@@H]2O)[C@@H](O)[C@H]1O` [P18], the values for the hydrolysis activity in data set [1] and in data set [3] were 3.5^1 nmol/min/mg and 10.5^2 nmol/min/mg, respectively. For the same compound, the “resistance to NAD-ase catalysed hydrolysis” value in data set [2] is reported as “resistance”. Moreover, the IC50 in the data set with HL60 is 26 µM.
Regarding `Nc1ncn([C@@H]2O[C@H](COP(=O)(O)OP(=O)(O)OC[C@H]3O[C@@H](n4cnc5c(N)ncnc54)[C@H](O)[C@@H]3O)[C@@H](O)[C@H]2O)c2ncnc1-2` [P24], the IC50 with HL60 is 2 µM. This lies in the single-digit micromolar range.
